Results reported in ChEMBL document CHEMBL1144409, “Synthesis of new quinoxaline-2-carboxylate 1,4-dioxide derivatives as anti-Mycobacterium tuberculosis agents” (J Med Chem, 2005).
In brackets after ≈: the same amount, converted by molar mass.

Key:
Assay type in all cases: functional
[1] = tested on: Mycobacterium tuberculosis; assay: In vitro minimum inhibitory concentration value against ethambutol resistant Mycobacterium tuberculosis in alamar assay
[2] = tested on: Mycobacterium tuberculosis; assay: Ratio of the MIC value of the Mycobacterium tuberculosis isoniazid resistant strain to H37Rv strain was determined
[3] = tested on: Mycobacterium tuberculosis; assay: Ratio of the MIC value of the Mycobacterium tuberculosis kanamycin resistant strain to H37Rv strain was determined
[4] = tested on: Mycobacterium tuberculosis; assay: Ratio of the MIC value of the Mycobacterium tuberculosis ethambutol resistant strain to H37Rv strain was determined
[5] = tested on: Mycobacterium tuberculosis; assay: Ratio of the MIC value of the Mycobacterium tuberculosis ethionamide resistant strain to H37Rv strain was determined
[6] = tested on: Mycobacterium tuberculosis; assay: In vitro minimum inhibitory concentration value against isoniazid resistant Mycobacterium tuberculosis in alamar assay
[7] = tested on: Mycobacterium tuberculosis; assay: In vitro minimum inhibitory concentration value against ciprofloxacin resistant Mycobacterium tuberculosis in alamar assay
[8] = tested on: Mycobacterium tuberculosis; assay: In vitro minimum inhibitory concentration value against rifampin resistant Mycobacterium tuberculosis in alamar assay
[9] = tested on: Mycobacterium tuberculosis; assay: In vitro minimum inhibitory concentration value against kanamycin resistant Mycobacterium tuberculosis in alamar assay
[10] = tested on: Mycobacterium tuberculosis; assay: In vitro minimum inhibitory concentration value against ethionamide resistant Mycobacterium tuberculosis in alamar assay
[11] = tested on: Mycobacterium tuberculosis; assay: In vitro minimum inhibitory concentration value against thiacetazone resistant Mycobacterium tuberculosis in alamar assay
[12] = tested on: Mycobacterium tuberculosis; assay: Ratio of the MIC value of the Mycobacterium tuberculosis thiacetazone resistant strain to H37Rv strain was determined
[13] = tested on: Mycobacterium tuberculosis; assay: Ratio of the MIC value of the Mycobacterium tuberculosis ciprofloxacin resistant strain to H37Rv strain was determined
[14] = tested on: Mycobacterium tuberculosis; assay: Ratio of the MIC value of the Mycobacterium tuberculosis rifampin resistant strain to H37Rv strain was determined

For COC(=O)c1c(Cc2ccccc2)[n+]([O-])c2cc(Cl)c(Cl)cc2[n+]1[O-], the MIC [1] was ≤ 3.13 µg/mL, the Ratio [2] was “>=2 ug ml-1” and the Ratio [3] was 1 µg/mL. The Ratio [4] was 1 µg/mL, the Ratio [5] was “>=2 ug ml-1” and the MIC [6] was 6.25 µg/mL (≈ 16.5 µM). For the same compound, the MIC [7] was 12.5 µg/mL (≈ 33 µM), the MIC [8] was ≤ 3.13 µg/mL and the MIC [9] was ≤ 3.13 µg/mL. For the same compound, the MIC [10] was 6.25 µg/mL (≈ 16.5 µM), the MIC [11] was ≤ 3.13 µg/mL and the Ratio [12] was 1 µg/mL. The Ratio [13] was “>=3.99 ug ml-1” and the Ratio [14] was 1 µg/mL.

Compound CCc1c(C(=O)OC)[n+]([O-])c2cc(C)c(C)cc2[n+]1[O-] has an MIC [1] of 0.78 µg/mL (≈ 2.82 µM), a Ratio [2] of 4 µg/mL and a Ratio [3] of 1 µg/mL. The Ratio [4] was 2 µg/mL, the Ratio [5] was 2 µg/mL and the MIC [6] was 1.56 µg/mL (≈ 5.65 µM). For the same compound, the MIC [7] was 0.39 µg/mL (≈ 1.41 µM), the MIC [8] was 0.39 µg/mL (≈ 1.41 µM) and the MIC [9] was 0.39 µg/mL (≈ 1.41 µM). The MIC [10] was 0.78 µg/mL (≈ 2.82 µM), the MIC [11] was 0.78 µg/mL (≈ 2.82 µM) and the Ratio [12] was 2 µg/mL. It also gave a Ratio [13] of 1 µg/mL and a Ratio [14] of 1 µg/mL.
